Values quoted from earlier work in patent US20020058290A1, “Cell lines and cell-based assays for identification of androgen receptor modulators” (priority 2000, published 2002).

Test system: MAP kinases Erk-1 and Erk-2
Conditions: AR-transfected PC3 cells; AR dependent, similar to DHT

CC(O)(CS(=O)(=O)c1ccc(F)cc1)C(=O)Nc1ccc(C#N)c(C(F)(F)F)c1 (centres unmarked) [Casodex]
activation of MAP kinases Erk-1 and Erk-2: activate MAP kinases Erk-1 and Erk-2 in an AR dependent fashion

CC(C)(O)C(=O)Nc1ccc([N+](=O)[O-])c(C(F)(F)F)c1 [Hydroxyflutamide]
activation of MAP kinases Erk-1 and Erk-2: activate MAP kinases Erk-1 and Erk-2 in an AR dependent fashion
